Legend:
[1] = test system: HUVEC cells; assay: Cell viability assay (MTS); assay type: cell-based, human; details: for reduction of cell viability at the higher dose tested: time at which it starts (in words): 50 µM peptide, 24 h and 48 h
Description: HUVECs were maintained in EGM®-2 BulletKit® medium. Cells were grown to 80% confluence at 37 °C in a humid atmosphere in the presence of 5% CO2. Passages 2–5 were used. Cells were starved for 12 h, using endothelial cell basal medium (EBM®-2 basal medium, 0,2% Fetal Bovine Serum) before all experiments.
The MTS assay (CellTiter 96® AQueous One Solution, Promega) was performed to compare the viability of cells treated with different concentrations of peptides (VEGF73-101, VEGF84-101 VEGFQ79G, and VEGFI83G) and CuSO4, and their complexes. We considered two different growth conditions for our treatments to be examined, to which we refer in this paper as proliferation conditions or survival conditions. Proliferation condition: Cells (3 replicates) were seeded in 96-well plates at a density of 1.5 × 10^3 cell/well, treated in EGM®-2 BulletKit®, 2% Fetal Bovine Serum (FBS) without VEGF supplementation. Survival condition: Cells (3 replicates) were seeded in 96-well plates at a density of 3 × 10^3 cell/well in an EBM®-2 basal medium of 0.2% FBS without supplements and VEGF. MTS assay was used following 24 h or 48 h of treatments according to the manufacturer’s instructions. The required copper and peptides were pre-mixed together in water in order to allow peptide/copper complexes formations before their addition to the cells. When the experiments were performed in the presence of bathocuproine disulfonic acid disodium salt (BCS), in proliferation condition, 50 µM of the copper chelator was added during the treatment for 24 h. The results were reported as the percentage of viable cells, with respect to the control set, to 100%.

[2] = RP-HPLC retention time on PepMap C18 column (UHPLC-ESI MS) as a measure of peptide hydrophobicity; assay type: physicochemical; details: used by the paper as measure of relative hydrophobicity, amidated-acetylated peptides, PepMap C18 column 300Å (75 μm × 150 mm), linear gradient 2% to 99% B (20% water–80% acetonitrile) with 0.1% FA over 40 min, 0.3 µL/min, 40 °C
Description: Here, we tested peptide lipophilic features by high-performance liquid chromatography using a reverse phase RP18 column.
To evaluate the relative hydrophobicity of the peptides, the retention times of amidated-acetylated peptides were recorded on a PepMap C18 column 300Å (75 μm × 150 mm) using a linear gradient from 2% to 99% of B (20% water–80% acetonitrile) containing 0.1% FA over 40 min, at a flow rate of 0.3 µL/min. The injection volume was 5 μL for analysis. The Q-exactive mass spectrometer was equipped with nano electrospray ion source (Nano EASY-Spray). The thermostatted column compartment was at 40 °C. The optimized parameters of mass spectrometry were illustrated as below: spray voltage, + 3.0 kV; capillary temperature, 250 °C; full MS; resolution, 70,000; automatic gain control (AGC) target, 3.0 × 10^6; maximum injection time (IT), 200 ms; scan range, 150–2000m/z. Nitrogen was used for spray stabilization. All data collected in profile mode were acquired and processed using Thermo Xcalibur 3.0 software.

[3] = Model membrane permeabilization assay: release of 6-carboxyfluorescein from dye-filled LUVs; details: 10 µM peptide, 200 µM LUVs 5:3:2 POPC/POPE/POPS, 10 mM phosphate buffer, 100 mM NaCl, pH 7.4, 25 °C, after 800 min, fluorescence λex 494/λem 520 nm, average of three experiments
Description: Figure 2 Dye release (membrane leakage) from model membranes induced by VEGF73-101, VEGF84-101, VEGFQ79G, and VEGFI83G. Kinetics of dye release from 200 µM LUVs of 5:3:2 POPC/POPE/POPS in the presence of 10 µM of each peptide. All experiments were performed in 10 mM phosphate buffer, 100 mM NaCl, pH 7.4, at 25 °C. Results are the average of three experiments.
Figure 7 Peptide induced release of 6-carboxyfluorescein from 200 μM POPC:POPE:POPS LUVs measured in the presence of (a) 10 μM peptides/Cu and (b) 10 μM VEGF73-101 (magenta curve) and its 1:1 Cu(II) complex (black curve), 10 μM VEGFI83G (green curve) and its 1:1 Cu(II) complex (blue curve). Experiments were in triplicate at 25 °C in 10 mM phosphate buffer, 100 mM NaCl, pH 7.4.
Model membranes were prepared according to a procedure described elsewhere. To mimic the lipid composition of endothelial cell membranes, we used POPC:POPE:POPS (5:3:2 molar ratio) lipid mixture. Multilamellar vesicles (MLVs) were obtained by vortexing a chloroform lipid solution under a gentle nitrogen flow. Next, the lipid solution was dried overnight in a vacuum at room temperature in a round-bottomed flask to remove all the residual solvent. […] Pore formation in the lipid bilayer was monitored by measuring the increase in fluorescence emission intensity due to dye dilution (dequenching) in the buffer upon membrane leakage. […]

[4] = test system: HUVEC cells; assay: Annexin V-FITC/PI staining, flow cytometry; assay type: cell-based, human; details: 72 h; for induction of apoptosis (in words): 5 µM peptide, EBM-2 0.2% FBS, PI/Annexin V, two experiments in triplicate
Description: Annexin V/ PI is a commonly used approach for studying apoptotic cells. Propidium iodide (PI) is widely used in conjunction with Annexin V to determine if cells are viable, apoptotic, or necrotic through differences in plasma membrane integrity and permeability. The fluorescence of AnnexinV-FITC/PI assay was read using flow cytometry. HUVEC cells were seeded on a 12-well plate at a density of 2.5 ×10^4 and grown for 48 h before treatments. During the last 24 h cells were starved in the same EBM-2 basal medium containing 0.2% fetal bovine serum without EC (endothelial cell) supplements. Cells were then exposed to 5 µM peptide for 72 h. When required, 10 µM CuSO4 was used in combination with peptides. Five hours of incubation in the presence of 1 µM STS (staurosporine) was used as a positive control for cell death. Cells were harvested and stained with Annexin V-FITC (Fluorescein isothiocyanate) and propidium iodide using an annexin V-FITC apoptosis detection kit (Life technologies, Monza (MB), Italy), following the manufacturer’s instructions. Briefly, cells were pelleted and resuspended in 800 µL PBS buffer containing 20 µL of annexin V, 20 µL of propidium iodide, and PI (Annexin V/Dead Cell Apoptosis Kit (Invitrogen), and kept for 10 min at 25 °C in the dark. Samples were analyzed within 1 h by flow cytometry using a CyFlow® ML (Sysmex Partec Milan-Italy). The fluorescent scatter plots indicated three types of cell populations: viable (Annexin V-FITC−/PI−), dead (Annexin V-FITC + /PI+), and apoptotic (Annexin V-FITC + /PI−). Quadrant analysis (FlowMax software -Partec) was performed on the gated fluorescent scatter plot to examine the percentage of live, dead, and apoptotic cell populations. Experiments were repeated twice in triplicate.
Sample were analyzed, 2 × 10^4 cells per sample, using a CyFlow® ML flow cytometer (Partec) system equipped with three laser sources and 10 optical parameters with dedicated filter setting and a high numerical aperture microscope objective (50× NA 0.82) for the detection of different scatter and fluorescence signals. […]

[5] = survival conditions (EBM2, 0.2% FBS without growth factors), MTS

RP-HPLC retention time tR [2] [min] | Molecule | cell viability of Cu(II) alone (in words) ([1]; 24 h, same concentrations as in the complexes, survival and proliferation conditions, MTS (Figure 9)) | cell viability (in words) ([1]; 5 µM peptide, 48 h, survival conditions (EBM2, 0.2% FBS without growth factors), MTS) | reduction of cell viability at the higher dose tested: time at which it starts (in words) [1, 5] | effect of the copper chelator BCS on the peptide's effect on cell viability (in words) ([1]; BCS 50 µM, 24 h, proliferation conditions, no added copper, MTS (Figure S10)) | dye release (membrane leakage) [3] [%] | induction of apoptosis (in words) [4] | live cells in the presence of Cu(II) (in words) ([4]; peptide 5 µM with copper(II) 10 µM, PI/Annexin V (Figure 10))
 | O=S(=O)([O-])[O-].[Cu+2] [Cu(II), copper sulfate, reference compound] | had no effects |  |  |  |  |  | 
21.7 | Ac-ESNITMQIMRIKPHQGQHIGEMSFLQHNK-NH2 [VEGF73-101] |  | significantly decrease cell viability | starting at 24 h | not significantly altered by BCS | ~5 | able to induce apoptosis | caused a decrease in live cells
21.4 | Ac-ESTNIMGIMRIKPHQGQHIGEMSFLQHNK-NH2 [VEGFQ79G, VEGF73-101 with point mutation in position 79 (Gln-Gly)] |  |  | starting at 48 h |  |  |  | 
20.4 | Ac-ESTNIMQIMRGKPHQGQHIGEMSFLQHNK-NH2 [VEGFI83G, VEGF73-101 with point mutation in position 83 (Ile-Gly)] |  |  | starting at 24 h |  |  |  | 
18.2 | Ac-KPHQGQHIGEMSFLQHNK-NH2 [VEGF84-101] |  |  | all peptides (except VEGF84-101) were able to reduce cell viability |  |  | Neither the shorter sequence (VEGF84-101), nor the single mutated peptides induced apoptosis | 

Reference: article PMC7216235, “The Ionophoric Activity of a Pro-Apoptotic VEGF165 Fragment on HUVEC Cells” (International Journal of Molecular Sciences, 2020)
